Source: patent US20130158024A1, “TRICYCLIC NECROSTATIN COMPOUNDS” (priority 2005, published 2013)
Entries after “also recorded” stand apart in the source; their conditions may differ. Where two headings read alike, the source gives them in different places.

Assays:
[1] = system: Jurkat T cells; assay: Necrosis (CICD) of Jurkat T cells induced by Fas ligand, cycloheximide and zVAD, ATP assay; assay type: cell-based, human; details: FasL/CHX/zVAD
Experimental: Jurkat cells were treated with 5 ng/ml of FasL without (A) or with cyclohexamide (CHX) (B) to induce apoptosis, or 5 ng/ml FasL, 1 μg/ml of CHX and 100 μM of zVAD.fmk to induce CICD (B). […] Cell viability was determined after 24 hours of incubation with indicated reagents using CellTiter-Glo ATP assay. The values represent viability relative to the control Jurkat cells without the treatment of FasL, which was set as 100% viability.
FIG. 34A is a graph showing the results of treating Jurkat T cells with Fas ligand (5 ng/ml), cyclohexamide (1 μg/ml) and zVAD (100 μM) in the presence of the indicated amounts of anti-necrotic compounds (4) and (5). Viability was determined 36 hours later using an ATP assay. The viability values are relative to the samples lacking Fas ligand, which were used as 100% viability controls. FIG. 34B is a graph as in FIG. 34A, in which the anti-necrotic compounds are (19) and (20).
Compounds were also tested in another necrosis assay utilizing human Jurkat T cells, Fas ligand to induce cell death, and zVAD to inhibit the apoptosis pathway. After 36 hours, cell viability was measure by the commercial CellTiter ATP cell viability assay (Promega).

[2] = system: FADD-deficient Jurkat T cells treated with TNF-α; assay: Inhibition of necroptosis (CICD) in FADD-deficient Jurkat T cells treated with TNF-α, ATP-based viability; assay type: cell-based, human
[3] = system: FADD deficient Jurkat cells; details: compound alone
[4] = system: U937 cells; assay: Oxidative stress (menadione) induced death of U937 cells, ATP assay; assay type: cell-based, human; details: 250 μM menadione, 24 hours
Experimental: Viability of TNFα/zVAD/DMSO or manadione/DMSO blank treated cells is also shown (- - -). Viability was determined using ATP-Lite-M assay (Packard). Numbers represent percentages of live cells. The values were normalized relative to the zVAD or DMSO treated controls, which were set as 100% viability.
In this and subsequent panels, cell viability was determined via ATP assay. Numbers represent viability normalized to that of the DMSO-treated cells in the absence of TNFα and menadione. Throughout, error bars represent standard deviations. […] Representative images are shown. […] Protein lysates were subjected to western blotting with antibodies to LC3 and to tubulin. The ratio of LC3-II to tubulin signals was calculated (“Ratio”) and normalized to the value in the control sample. […] Alternatively, cells were treated with 2 μM rapamycin. […] Numbers represent viability normalized to that of the compound-treated cells in the absence of TNFα. In FIG. 28H, expression of beclin-1 (“Bec”) and tubulin (“Tub”) in the stable populations of cells in FIG. 28G was analyzed by western blotting.

[5] = Homo sapiens, Jurkat, 24 h, read-out: EC50 (μM) for inhibition of necroptosis

Row | Compound | EC50 [2, 5] [µM] | melting point [°C] | also measured
1 | COc1ccc([C@H]2[C@@H]3CCc4ccc(OC)cc4C3=NN2C(C)=O)cc1 (relative stereo) [Compound 142, (3R,3aS)-rel-2-acetyl-3,3a,4,5-tetrahydro-3-(4-methoxyphenyl)-8-methoxy-2H-benz[g]indazole] |  |  | inhibition of CICD/necrosis of Jurkat cells, in words [1]: only the cis isomers (4) (FIG. 34A) and (19) (FIG. 34B) were found to efficiently inhibit necrosis
2 | COc1ccc2c(c1)C1=NN(C(C)=O)[C@@H](c3ccc(F)cc3)[C@H]1CO2 (relative stereo) [Compound 186, (3R,3aR)-rel-2-acetyl-2,3,3a,4-tetrahydro-3-(4-fluorophenyl)-8-methoxy-[1]benzopyrano[4,3-c]pyrazole] | 4.8 ± 1.3 | 245 | 
3 | CN1C(=O)NC(Cc2c[nH]c3c(Cl)cccc23)C1=O (stereo not drawn) [7-Cl—O-Nec-1] |  |  | antinecroptotic (anti-CICD) activity, in words ([2]; FADD-deficient Jurkat cells, TNFα): equally potent anti-CICD activity; also recorded: possessing antinecroptotic activity in vitro similar to that of 7-Cl-Nec-1; EC50 ([2]; Jurkat FADD deficient cells treated with TNFα, read-out: EC50): 0.206 ± 0.033 µM; LD50 (nonspecific toxicity) [3]: > 1 mM
4 | COc1ccc2c(c1)C1=NN(C(C)=O)[C@@H](c3cccc(F)c3)[C@H]1CC2 (relative stereo) [Compound 166, (3R,3aR)-rel-2-acetyl-3,3a,4,5-tetrahydro-3-(3-fluorophenyl)-8-methoxy-2H-benz[g]indazole] | 0.68 ± 0.009 | 176 to 177 | 
5 | CC(=O)N1N=C2c3ccccc3CC[C@@H]2[C@@H]1c1ccc(F)cc1 (relative stereo) [Compound 165, (3R,3aR)-rel-2-acetyl-3,3a,4,5-tetrahydro-3-(4-fluorophenyl)-2H-benz[g]indazole] | 5.4 ± 1.1 | 166 to 168 | 
6 | catalase [reference compound] |  |  | protection from menadione induced cell death, in words [4]: provided protection against menadione
7 | O=C1NCCc2c(OCCCCN3CCCCC3)cccc21 [DPQ, 3,4-Dihydro-5[4(1-piperindinyl)butoxy]-1(2H)-isoquinoline, reference compound] |  |  | inhibition of CICD/necrosis of Jurkat cells, in words [1]: failed to inhibit CICD of Jurkat cells
8 | CC(=O)N1N=C2c3ccccc3CC[C@H]2[C@@H]1c1ccc(F)cc1 (relative stereo) [Compound 199, (3R,3aS)-rel-2-acetyl-3,3a,4,5-tetrahydro-3-(4-fluorophenyl)-2H-benz[g]indazole] |  | 168 to 171 | 
9 | COc1ccc2c(c1)C1=NN(C(C)=O)[C@@H](c3ccc(F)cc3)[C@@H]1CC2 (relative stereo) [Compound 160, (3R,3aS)-rel-2-acetyl-3,3a,4,5-tetrahydro-3-(4-fluorophenyl)-8-methoxy-2H-benz[g]indazole] | 3.7 ± 0.75 |  | inhibition of CICD/necrosis of Jurkat cells, in words [1]: only the cis isomers (4) (FIG. 34A) and (19) (FIG. 34B) were found to efficiently inhibit necrosis
10 | COc1ccc2c(c1)C1=NN(C(C)=O)[C@@H](c3cccc(F)c3)[C@@H]1CC2 (relative stereo) [Compound 200, (3R,3aS)-rel-2-acetyl-3,3a,4,5-tetrahydro-3-(3-fluorophenyl)-8-methoxy-2H-benz[g]indazole] |  | 196 to 199 | 
11 | CC(=O)N1N=C2c3cc(C)ccc3OC[C@H]2[C@@H]1c1ccc(F)cc1 (relative stereo) [Compound 184, (3R,3aS)-rel-2-acetyl-2,3,3a,4-tetrahydro-3-(4-fluorophenyl)-8-methyl-[1]benzopyrano[4,3-c]pyrazole] | > 100 | 218 to 220 | 
12 | CC(=O)N1N=C2c3cc(C)ccc3OC[C@@H]2[C@@H]1c1ccc(F)cc1 (relative stereo) [Compound 185, (3R,3aR)-rel-2-acetyl-2,3,3a,4-tetrahydro-3-(4-fluorophenyl)-8-methyl-[1]benzopyrano[4,3-c]pyrazole] | 11.6 ± 6.1 | 243 to 246 | 
13 | superoxide dismutase [reference compound] |  |  | protection from menadione induced cell death, in words [4]: provided protection against menadione
14 | COc1ccc2c(c1)C1=NN(C(C)=O)[C@@H](c3ccc(F)cc3)[C@H]1CC2 (relative stereo) [Compound 161, (3R,3aR)-rel-2-acetyl-3,3a,4,5-tetrahydro-3-(4-fluorophenyl)-8-methoxy-2H-benz[g]indazole] | 0.96 ± 0.085 |  | inhibition of CICD/necrosis of Jurkat cells, in words [1]: efficiently inhibit necrosis and result in high cell viability
15 | COc1ccc2c(c1)C1=NN(C(C)=O)[C@@H](c3ccc4c(c3)OCCO4)[C@H]1CC2 (relative stereo) [Compound 178, (3R,3aR)-rel-2-acetyl-3,3a,4,5-tetrahydro-3-(3,4-ethylenedioxyphenyl)-8-methoxy-2H-benz[g]indazole] | 2.1 ± 0.65 | 189 to 193 | 
16 | COc1ccc([C@H]2[C@H]3CCc4ccccc4C3=NN2C(C)=O)cc1 (relative stereo) [Compound 167, (3R,3aR)-rel-2-acetyl-3,3a,4,5-tetrahydro-3-(4-methoxyphenyl)-2H-benz[g]indazole] | 0.84 ± 0.32 | 257 to 260 | 
17 | COc1ccc2c(c1)C1=NN(C(C)=O)[C@@H](c3ccc4c(c3)OCO4)[C@H]1CC2 (relative stereo) [Compound 177, (3R,3aR)-rel-2-acetyl-3,3a,4,5-tetrahydro-3-(3,4-methylenedioxyphenyl)-8-methoxy-2H-benz[g]indazole] | 2.6 ± 1.3 | 206 to 209 | 
18 | vitamin E [reference compound] |  |  | protection from menadione induced cell death, in words [4]: provided protection against menadione
19 | O=c1[nH]c2ccccc2c2ccccc12 [6(5H)-Phenanthridione, reference compound] |  |  | inhibition of CICD/necrosis of Jurkat cells, in words [1]: failed to inhibit CICD of Jurkat cells
20 | COc1ccc([C@H]2[C@@H]3CCc4ccc(OC)cc4C3=NN2C=O)cc1 (relative stereo) [Compound 195, (3R,3aS)-rel-2-formyl-3,3a,4,5-tetrahydro-3-(4-methoxyphenyl)-8-methoxy-2H-benz[g] indazole] |  | 166 to 168 | 
21 | CC(=O)N[C@@H](CS)C(=O)O [N-acetyl-cysteine, reference compound] |  |  | protection from menadione induced cell death, in words [4]: provided protection against menadione
22 | COc1cc2c(cc1OC)C1=NN(C(C)=O)[C@@H](c3ccc(F)cc3)[C@H]1CC2 (relative stereo) [Compound 164, (3R,3aR)-rel-2-acetyl-3,3a,4,5-tetrahydro-3-(4-fluorophenyl)-7,8-dimethoxy-2H-benz[g]indazole] | > 100 | 189 to 193 | 
23 | COc1ccc2c(c1)C1=NN(C(C)=O)[C@@H](c3ccc(F)cc3)[C@@H]1CO2 (relative stereo) [Compound 211, (3R,3aS)-rel-2-acetyl-2,3,3a,4-tetrahydro-3-(4-fluorophenyl)-8-methoxy-[1]benzopyrano[4,3-c]pyrazole] |  | 174 to 176 | 
